Results as given in patent publication US20210069108A1, “METHODS FOR PREVENTION AND TREATMENT OF PRESSURE ULCERS CAUSED BY ISCHEMIA USING CONTACT VASODILATORS” (priority 2018, published 2021).

System: pressure ulcer
Assay: topical composition applied to one pressure ulcer of a patient, another pressure ulcer left untreated
Format: in vivo
Conditions: patient diagnosed with pressure ulcers
Description: A patient is diagnosed with pressure ulcers. A topical composition comprising the calcium channel blocker nifedipine is applied to one pressure ulcer while another pressure ulcer is left untreated. […] A patient is diagnosed with pressure ulcers. A topical composition comprising the ACE inhibitor enalapril is applied to one pressure ulcer while another pressure ulcer is left untreated. […] A patient is diagnosed with pressure ulcers. A topical composition comprising the angiotensin receptor blocker losartan is applied to one pressure ulcer while another pressure ulcer is left untreated.

| Compound | healing of the treated pressure ulcer compared with the untreated pressure ulcer |
| --- | --- |
| CCOC(=O)[C@H](CCc1ccccc1)N[C@@H](C)C(=O)N1CCC[C@H]1C(=O)O [enalapril] | heal faster than the untreated pressure ulcer |
| CCCCc1nc(Cl)c(CO)n1Cc1ccc(-c2ccccc2-c2nn[nH]n2)cc1 [losartan] | heal faster than the untreated pressure ulcer |
